Assay results reported in patent US20060263802A1 (priority 2003, published 2006).

Legend:
Assay type in all cases: binding
[1] = system: human monoclonal antibody CR57
[2] = system: human monoclonal antibody CRJB
[3] = system: human monoclonal antibody CR57; remark: listed apart in the source
[4] = system: human monoclonal antibody CRJA
[5] = system: human monoclonal antibody CRJA; remark: listed apart in the source
[6] = system: human monoclonal antibody CRJB; remark: listed apart in the source

Row | Sequence | Binding of CR57 to linear peptide (PEPSCAN-ELISA signal) [1] | Binding of CRJB to linear peptide (PEPSCAN-ELISA signal) [2] | Binding of CR57 (10 μg/ml) to looped/cyclic peptide (PEPSCAN-ELISA) [3] | Binding of CRJA (10 μg/ml) to looped/cyclic peptide (PEPSCAN-ELISA) [4] | Binding of CRJA to linear peptide (PEPSCAN-ELISA signal) [5] | Binding of CRJB (10 μg/ml) to looped/cyclic peptide (PEPSCAN-ELISA) [6] | Binding of CR57 (10 μg/ml) to looped/cyclic peptide (PEPSCAN-ELISA signal) [3] | Binding of CRJA (10 μg/ml) to looped/cyclic peptide (PEPSCAN-ELISA signal) [4] | Binding of CRJB (10 μg/ml) to looped/cyclic peptide (PEPSCAN-ELISA signal) [6]
1 | ILPSKGCLRVGGRCH | 79 | 113 | 105 | 97 | 112 | 91 |  |  | 
2 | STNHDYTIWMPENPR | 60 | 112 |  |  | 77 |  | 72 | 51 | 74
3 | PIDIHHLSCPNNLVV | 46 | 93 |  |  | 39 |  | 50 | 38 | 70
4 | LRVGGRCHPHVNGVF | 104 | 143 | 99 | 96 | 104 | 105 |  |  | 
5 | SRVFPSGKCSGVAVS | 100 | 125 |  |  | 107 |  | 112 | 92 | 89
6 | FPIYTILDKLGPWSP | 42 | 105 |  |  | 88 |  | 65 | 57 | 63
7 | LCGVLGLRLMDGTWV | 83 | 138 | 128 | 106 | 111 | 104 |  |  | 
8 | LQQHMELLESSVIPL | 106 | 134 | 136 | 108 | 91 | 93 |  |  | 
9 | FSYMELKVGYILAIK | 89 | 112 |  |  | 120 |  | 104 | 96 | 72
10 | LSGFSYMELKVGYIL | 71 | 132 |  |  | 82 |  | 72 | 83 | 74
11 | GGRCHPHVNGVFFNG | 86 | 119 | 134 | 107 | 110 | 110 |  |  | 
12 | ETCGFVDERGLYKSL | 64 | 120 | 90 | 75 | 85 | 78 |  |  | 
13 | DGNVLIPEMQSSLLQ | 123 | 134 | 114 | 107 | 93 | 104 |  |  | 
14 | TCGFVDERGLYKSLK | 47 | 120 | 84 | 100 | 104 | 79 |  |  | 
15 | MQSSLLQQHMELLES | 65 | 113 | 72 | 99 | 113 | 90 |  |  | 
